# Measured values: patent US20080031822A1, “Methods of modeling migraine pain and identifying candidate compounds for the treatment of migraine” (priority 2006, published 2008)
# Key:
# Male Sprague Dawley rats [1] = assay: Dural inflammation migraine model, tactile hyperesthesia of the hindpaw (50% paw withdrawal threshold, von Frey filaments); type: in vivo, rat
# Male Sprague Dawley rats [2] = assay: Dural inflammation migraine model, facial tactile hyperesthesia (50% facial response threshold, von Frey filaments); type: in vivo, rat
structure (smiles),measurement,setting,value
"N[C@@H](CCC(=O)N[C@@H](CSN=O)C(=O)NCC(=O)O)C(=O)O [SNOG, s-nitrosylglutathione]",tactile hyperesthesia of the hindpaw after administration to the dura,"Male Sprague Dawley rats [1]; administered to the dura, results two hours after treatment (FIG. 4)",produced a tactile hyperesthesia effect similar to that induced by administration of the IM cocktail
CCCCN1CCCCC1C(=O)Nc1c(C)cccc1C (stereo not shown) [bupivacaine],50% paw withdrawal threshold versus control rats with dural IM cocktail only,Male Sprague Dawley rats [1]; administered in the RVM thirty minutes after IM cocktail (FIG. 9A),increase in paw withdrawal threshold
same,50% paw withdrawal threshold versus control rats with dural IM cocktail only,Male Sprague Dawley rats [1]; administered in the RVM two hours after IM cocktail (FIG. 9B),significant increase in test animal paw withdrawal threshold
same,50% facial response threshold versus control rats with dural IM cocktail only,Male Sprague Dawley rats [2]; administered in the RVM thirty minutes after IM cocktail (FIGS. 7A-7B),increase in facial response threshold
CNS(=O)(=O)Cc1ccc2[nH]cc(CCN(C)C)c2c1 [sumatriptan],50% paw withdrawal threshold versus control rats with dural IM cocktail only,Male Sprague Dawley rats [1]; 0.6 mg/kg s.c. ten minutes prior to IM cocktail (FIG. 8),increase in paw withdrawal threshold
same,tactile hyperesthesia of the hindpaw induced by dural inflammation,"Male Sprague Dawley rats [1]; sumatriptan succinate subcutaneously 1 mg/kg five minutes prior to dural IM cocktail, results two hours after dural treatment (FIG. 10)",attenuates tactile hyperesthesia of the hindpaw
same,50% facial response threshold versus control rats with dural IM cocktail only,Male Sprague Dawley rats [2]; systemic administration thirty minutes after IM cocktail (FIGS. 6A-6B),increase in facial response threshold
